The record followed here is ChEMBL document CHEMBL5338747, “Discovery of Quaternized Pyridine-Thiazole-Pleuromutilin Derivatives with Broad-Spectrum Antibacterial and Potent Anti-MRSA Activity” (J Med Chem, 2023).

Values after ≈ are worked out from the molar mass of the structure shown. Active and inactive are the calls of the source. The calls are words filed in the database; no cut-off is given here.

The subject of series [1] is Staphylococcus aureus. In words: Antibacterial activity against methicillin-resistant Staphylococcus aureus ATCC 33591 infected in Kunming mouse assessed as reduction in bacterial load in kidney at 10 mg/kg, ip for 2 days starting from 1 hr post-infection by hematoxylin-eosin staining based analysis. It is filed as functional, organism-based. The following applies: time 2.0 day.

The test system of series [2] is Staphylococcus aureus. In words: Antibacterial activity against methicillin-resistant Staphylococcus aureus ATCC 33591 infected in Kunming mouse assessed as reduction in bacterial load in liver at 10 mg/kg, ip for 2 days starting from 1 hr post-infection by hematoxylin-eosin staining based analysis. Type of series: functional, organism-based. The following applies: time 2.0 day.

The test system of series [3] is Staphylococcus aureus. Put plainly: Antibacterial activity against methicillin-resistant Staphylococcus aureus ATCC 33591 infected in Kunming mouse assessed as reduction in bacterial load in lungs at 10 mg/kg, ip for 2 days starting from 1 hr post-infection by hematoxylin-eosin staining based analysis. Particulars: time 2.0 day. It is filed as functional, organism-based.

The test system of series [4] is Staphylococcus aureus. Put plainly: Antibacterial activity against methicillin-resistant Staphylococcus aureus ATCC 33591 assessed as inhibition of bacterial growth incubated for 24 hrs by broth microdilution method. It is filed as functional.
Series [5] concerns Staphylococcus aureus. In words: Antibacterial activity against methicillin-resistant Staphylococcus aureus ATCC 43300 assessed as inhibition of bacterial growth incubated for 24 hrs by broth microdilution method. It is filed as functional. (Dilution methods test growth across graded concentrations, often in twofold steps.)
Series [6] has as its system Staphylococcus aureus. In words: Antibacterial activity against […] assessed as inhibition of bacterial growth incubated for 24 hrs by broth microdilution method. Type of series: functional. Particulars: ATCC 29213.
For series [7], the system named is Staphylococcus epidermidis. Put plainly: Antibacterial activity against methicillin-resistant Staphylococcus epidermidis ATCC 51625 assessed as inhibition of bacterial growth incubated for 24 hrs by broth microdilution method. Type of series: functional.
The subject of series [8] is Acinetobacter baumannii. In words: Antibacterial activity against Acinetobacter baumannii ATCC 19606 assessed as inhibition of bacterial growth incubated for 24 hrs by broth microdilution method. It is filed as functional.
Series [9] concerns Salmonella enterica. In words: Antibacterial activity against Salmonella enterica ATCC 14028 assessed as inhibition of bacterial growth incubated for 24 hrs by broth microdilution method. It is filed as functional.
The test system of series [10] is Escherichia coli. In words: Antibacterial activity against Escherichia coli ATCC 25922 assessed as inhibition of bacterial growth incubated for 24 hrs by broth microdilution method. It is filed as functional.
For series [11], the system named is Escherichia coli. In words: Antibacterial activity against Escherichia coli CMCC 44103 assessed as inhibition of bacterial growth incubated for 24 hrs by broth microdilution method. It is filed as functional.
A short description of series [12]: Aqueous solubility of the compound in physiological saline measured after 12 hrs by UV spectrophotometric analysis. Type of series: physicochemical.
Series [13] in a line: Cytotoxicity against human HEK293 cells assessed as reduction in cell viability measured after 48 hrs by CCK8 assay. It is filed as toxicity, cell-based. (Tetrazolium dyes change colour on reduction, which living cells bring about.)
The nature of series [14]: Cytotoxicity against human A549 cells assessed as reduction in cell viability measured after 48 hrs by CCK8 assay. Type of series: toxicity, cell-based.
A short description of series [15]: Cytotoxicity against human HepG2 cells assessed as reduction in cell viability measured after 48 hrs by CCK8 assay. Type of series: toxicity, cell-based.
The subject of series [16] is Staphylococcus aureus. Put plainly: Disruption of biofilm formation in methicillin-resistant Staphylococcus aureus ATCC 33591 assessed as inhibition of biofilm formation at MIC measured after 24 hrs by crystal violet staining based analysis. It is filed as functional.
The test system of series [17] is Escherichia coli. In words: Disruption of biofilm formation in Escherichia coli ATCC 25922 assessed as inhibition of biofilm formation at MIC measured after 24 hrs by crystal violet staining based analysis. Type of series: functional.
Series [18] deals with Staphylococcus aureus. Put plainly: Disruption of biofilm formation in methicillin-resistant Staphylococcus aureus ATCC 33591 assessed as inhibition of biofilm formation at 4XMIC measured after 24 hrs by crystal violet staining based analysis. It is filed as functional.
Series [19] relates to Escherichia coli. In words: Disruption of biofilm formation in Escherichia coli ATCC 25922 assessed as inhibition of biofilm formation at 4XMIC measured after 24 hrs by crystal violet staining based analysis. It is filed as functional.
Series [20] deals with Staphylococcus aureus. In words: Antibacterial activity against methicillin-resistant Staphylococcus aureus ATCC 33591 infected in ip dosed Kunming mouse assessed as protection against bacterial infection administered for 7 days starting from 1 hr post-infection. Type of series: functional.
The subject of series [21] is Staphylococcus aureus. In words: Antibacterial activity against methicillin-resistant Staphylococcus aureus ATCC 33591 infected in Kunming mouse assessed as animal survival rate at 5 mg/kg, ip for 7 days starting from 1 hr post-infection. Type of series: functional. The following applies: time 7.0 day.
Series [22] relates to Mesomycoplasma hyopneumoniae. Put plainly: Anti-mycoplasma activity against Mycoplasma hyopneumoniae J NCTC10110 assessed as inhibition of mycoplasma growth measured after 7 days by broth microdilution method. Type of series: functional. Particulars: J NCTC10110, 168 h, time 7 day.
For series [23], the system named is Mesomycoplasma hyopneumoniae. Put plainly: Anti-mycoplasma activity against Mycoplasma hyopneumoniae LH assessed as inhibition of mycoplasma growth measured after 7 days by broth microdilution method. Type of series: functional. Particulars: 168 h, time 7 day.
In series [24] the test system is Mesomycoplasma hyorhinis. Put plainly: Anti-mycoplasma activity against Mycoplasma hyorhinis BTS-7 NCTC10130 assessed as inhibition of mycoplasma growth measured after 7 days by broth microdilution method. Type of series: functional. Particulars: BTS-7 NCTC10130, 168 h, time 7 day.
The subject of series [25] is Mycoplasmoides gallisepticum. In words: Anti-mycoplasma activity against Mycoplasma gallisepticum R NCTC10115 assessed as inhibition of mycoplasma growth measured after 7 days by broth microdilution method. The following applies: R NCTC10115, 168 h, time 7 day. Type of series: functional.
Series [26] deals with Mycoplasmopsis synoviae. In words: Anti-mycoplasma activity against Mycoplasma synoviae WVU1853 NCTC10124 assessed as inhibition of mycoplasma growth measured after 7 days by broth microdilution method. It is filed as functional. Particulars: WVU1853 NCTC10124, 168 h, time 7 day.
The test system of series [27] is Mycoplasmoides pneumoniae. In words: Anti-mycoplasma activity against Mycoplasma pneumoniae M129 ATCC15531 assessed as inhibition of mycoplasma growth measured after 7 days by broth microdilution method. Type of series: functional. The following applies: M129 ATCC15531, 168 h, time 7 day.
Series [28] has as its system Metamycoplasma hominis. In words: Anti-mycoplasma activity against Mycoplasma hominis PG-21 ATCC23114 assessed as inhibition of mycoplasma growth measured after 7 days by broth microdilution method. Type of series: functional. Particulars: PG-21 ATCC23114, 168 h, time 7 day.
Series [29] has as its system Mycoplasma genitalium. Put plainly: Anti-mycoplasma activity against Mycoplasma genitalium G37 ATCC33530 assessed as inhibition of mycoplasma growth measured after 7 days by broth microdilution method. Type of series: functional. Particulars: Mycoplasmoides genitalium, G37 ATCC33530, 168 h; time 7 day.

`C=C[C@]1(C)C[C@@H](OC(=O)CSC(C)(C)CNC(=O)[C@H](N)C(C)C)[C@]2(C)[C@H](C)CC[C@]3(CCC(=O)[C@H]32)[C@@H](C)[C@@H]1O` [VALNEMULIN]: the result in series [1], in series [2], in series [3] and in series [21] was Active. In addition, the MIC (commonly the lowest concentration found to suppress growth) in [4] was determined as 128 µg/mL (≈ 227 µM); in [5], 8 µg/mL (≈ 14.2 µM); in series [6], 4 µg/mL (≈ 7.08 µM); in series [7], 64 µg/mL (≈ 113 µM); in [8] it was 2 µg/mL (≈ 3.54 µM); in series [9], 64 µg/mL (≈ 113 µM). In addition, the MIC worked out at 16 µg/mL (≈ 28.3 µM) in series [10] and 64 µg/mL (≈ 113 µM) in series [11]. Further, in series [12], the solubility (in general, the concentration that dissolves in the medium under given conditions) at 12 h was 341 µM (≈ 193 µg/mL). Also, the results for the CC50 at 48 h in [13], in series [14] and in series [15] were 65.4 µM, 88 µM and 87.3 µM, respectively. Also, the “inhibition (INH)” value in [16] is given as 38.1%; in series [17], 26.52%; in series [18], 68.59%; in [19], 64.02%. Besides, the ED50 (in general, the dose at which the effect has come halfway, by size or by number of responders) in [20] (ATCC 33591, 168 h, time 7 day) was determined as 12.3 mg/kg. Further, in [20] (time 7.0 day), the Activity entry was “Dose-Dependent Effect”.
On to `C=C[C@]1(C)C[C@@H](OC(=O)CSCCN(CC)CC)[C@]2(C)[C@H](C)CC[C@]3(CCC(=O)[C@H]32)[C@@H](C)[C@@H]1O` [TIAMULIN], for which the MIC in [22] was determined as 0.03 µg/mL (≈ 0.0608 µM); in [23], 0.015 µg/mL (≈ 0.0304 µM); in series [24], 0.03 µg/mL (≈ 0.0608 µM); in series [25], 0.125 µg/mL (≈ 0.253 µM); in series [26], 2 µg/mL (≈ 4.05 µM); in series [27], 0.125 µg/mL (≈ 0.253 µM). The minimum inhibitory concentration (MIC) in series [28] was 0.25 µg/mL (≈ 0.506 µM); in series [29] it was 0.03 µg/mL (≈ 0.0608 µM). The amount in solution in series [12] (solubility at 12 h) came to 227 µM (≈ 112 µg/mL).
